# According to ChEMBL document CHEMBL1201862, “PubChem BioAssay data set” (2004):
# Active and inactive are the calls of the source.
# What was measured:
# [1] = tested on: Streptococcus; test: Luminescence Microorganism-Based Dose Response Follow up to Identify Compounds Cytotoxic to Streptococcus. [Related pubchem assays: 1677 (Project Summary), 1915, 1914, 1902 (Retest at Dose), 1900 (Counter Screen), 1662 (Primary HTS)]; type: functional, organism-based
# [2] = target: T1, Streptokinase A (Streptococcus pyogenes serotype M1, UniProt P10520); test: viability-normalized secreted streptokinase activity reduction – plasminogen activation absorbance, OD405, dose response (AID 1914); type: functional, Streptococcus pyogenes M1 GAS;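 further: secreted streptokinase activity via plasminogen activation per viability signal from cell pellet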
# T1 sequence (P10520 whole entry): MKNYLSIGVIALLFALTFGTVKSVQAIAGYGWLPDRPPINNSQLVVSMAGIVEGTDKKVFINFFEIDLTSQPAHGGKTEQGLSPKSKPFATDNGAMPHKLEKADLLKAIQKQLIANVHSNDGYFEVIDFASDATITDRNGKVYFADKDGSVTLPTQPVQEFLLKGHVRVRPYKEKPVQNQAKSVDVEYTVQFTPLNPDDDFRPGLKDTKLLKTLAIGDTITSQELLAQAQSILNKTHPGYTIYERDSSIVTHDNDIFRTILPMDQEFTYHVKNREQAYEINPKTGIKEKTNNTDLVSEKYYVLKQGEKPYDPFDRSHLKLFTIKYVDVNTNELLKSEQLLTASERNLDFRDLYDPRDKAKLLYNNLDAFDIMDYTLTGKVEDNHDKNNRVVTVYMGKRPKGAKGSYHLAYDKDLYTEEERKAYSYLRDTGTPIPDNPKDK
# [3] = NIH3T3 cell viability loss – ATP luminescence, mouse fibroblasts, counter-screen, dose response (AID 2010); type: functional, cell-based;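 further: cells exposed to compound for about 90 hours before reading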
# [4] = Trypanosoma cruzi growth suppression in host cells – NIH3T3 host cells, beta-gal luminescence, confirmation (AID 2044); type: functional, cell-based;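 further: intracellular parasites grown in NIH/3T3 mouse fibroblasts as host cells; luminescent beta-galactosidase reporter signal from transgenic T. cruzi replicating inside host cells; inhibitors lower the luminescence signal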
# [5] = tested on: Streptococcus sp. 'group A'; test: Streptococcus pyogenes SK(-)GAS viability under kanamycin – luminescence, BacTiterGlo, confirmation, counter-screen for streptokinase expression inhibitor project, dose response (AID 1900); type: functional, organism-based
# [6] = tested on: Streptococcus; test: GAS UMAA2166 growth inhibition – luminescence, BacTiterGlo, counter-screen for streptokinase expression inhibitor project, dose response (AID 1915); type: functional, organism-based;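 further: potency for reduction of bacterial viability or growth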
# [7] = microbe, parasite or virus in culture; type: functional; conditions: Mycobacterium tuberculosis
# [8] = target: T2, Neuropeptide Y receptor type 2 (Homo sapiens, UniProt P49146); type: functional, cell-based;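 on IC50: HEK293 cells expressing the receptor and a CNG channel; stimulus was NPY near EC95 followed by isoproterenol to raise cAMP; antagonist potency measured as restoring cAMP signal that NPY suppresses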
# T2 sequence (P49146 whole entry): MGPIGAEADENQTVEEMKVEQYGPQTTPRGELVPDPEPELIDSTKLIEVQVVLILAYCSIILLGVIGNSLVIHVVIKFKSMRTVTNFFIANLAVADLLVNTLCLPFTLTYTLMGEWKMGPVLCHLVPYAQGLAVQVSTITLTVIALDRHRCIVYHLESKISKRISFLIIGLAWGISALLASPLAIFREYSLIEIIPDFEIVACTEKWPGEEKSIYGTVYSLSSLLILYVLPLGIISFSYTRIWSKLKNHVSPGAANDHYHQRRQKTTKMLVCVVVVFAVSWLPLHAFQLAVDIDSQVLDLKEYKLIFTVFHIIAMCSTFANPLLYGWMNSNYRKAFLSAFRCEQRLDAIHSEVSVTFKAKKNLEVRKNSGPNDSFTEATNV
# [9] = target: T3, Neuropeptide Y receptor type 1 (Homo sapiens, UniProt P25929); type: functional;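 on IC50: HEK293 cells with a CNG channel challenged with NPY then isoproterenol; potency as antagonist that reverses NPY suppression of cAMP signal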
# T3 sequence (P25929 whole entry): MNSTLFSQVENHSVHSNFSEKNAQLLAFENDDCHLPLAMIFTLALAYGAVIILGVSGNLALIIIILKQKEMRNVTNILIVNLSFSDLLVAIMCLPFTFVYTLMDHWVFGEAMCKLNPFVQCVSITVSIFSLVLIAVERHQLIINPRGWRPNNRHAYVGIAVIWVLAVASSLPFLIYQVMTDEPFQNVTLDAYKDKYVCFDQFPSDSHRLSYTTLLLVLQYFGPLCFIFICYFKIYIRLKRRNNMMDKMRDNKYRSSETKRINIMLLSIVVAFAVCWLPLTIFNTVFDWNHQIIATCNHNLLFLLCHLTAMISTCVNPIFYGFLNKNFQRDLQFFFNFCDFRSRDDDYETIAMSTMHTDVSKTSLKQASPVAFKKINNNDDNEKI
# [10] = mitochondrial function rescue without frataxin homolog – Friedreich's ataxia, plus single-dose screen, dose response (AID 1465); type: functional;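 further: yeast depleted of Yfh1p frataxin homolog grown on glycerol needing respiration; WST-1 tetrazolium dye reduction as measure of cellular dehydrogenase metabolic activity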
# [11] = Luminescence Cell-Based Dose Confirmation HTS to Identify Inhibitors of Polyadenylation.; type: functional
# [12] = mRNA 3' processing disruption, beta-gal signal increase – luminescence, S. cerevisiae SKY197-pL101, dose response (AID 2525); type: functional, cell-based
# [13] = target: T3, Neuropeptide Y receptor type 1; test: Fluorescence-based dose response cell-based high-throughput screening assay for agonists of NPY-Y1. [Related pubchem assays: 1697 (Screening assay (NPY-Y1 agonists).), 1359 (Screening assay (NPY-Y2 potentiators or agonists).), 1304 (Screening assay (NPY-Y1 potentiators or agonists).), 1704 (Screening assay (CNGC inhibitors).), 1791 (Summary AID.)]; type: functional
# [14] = Luminescence Cell-Based Dose Retest to Confirm Inhibitors of Cancer Stem Cells. [Related pubchem assays (depositor defined):AID2717, AID2721]; type: functional; conditions: Homo sapiens
# [15] = tested on: INS1; test: INS-1E survival protection against cytokine death – cell-based, luminescence, retest, dose response (AID 449756); type: functional; conditions: Rattus norvegicus;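 further: cell death triggered by IL-1 beta plus TNF-alpha plus IFN-gamma mixture; protective hits raise ATP signal compared with cytokine alone wells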
# [16] = tested on: HEK293; test: Fluorescence-based counterscreen for potentiators or agonists of NPY-Y1: cell-based high-throughput dose response assay for inhibitors of cyclic nucleotide gated ion channel (CNGC) activity. In this assay, the parental HEK293 cell line transfected with a cyclic-nucleotide gated ion channel (CNGC)-based cAMP sensor is used to measure inhibition of isoproterenol-induced CNGC …; type: functional; conditions: Homo sapiens
# [17] = target: T2, Neuropeptide Y receptor type 2; test: Fluorescence-based counterscreen for agonists of NPY-Y1: cell-based high-throughput dose response assay for agonists of NPY-Y2.; type: functional
# [18] = tested on: Vero; test: cells; type: functional; conditions: Chlorocebus sabaeus
# [19] = target: Beta-galactosidase (Escherichia coli, UniProt Q8VNN2); test: Dose response counterscreen for EBI2 assay utilizing the enzyme, b-galactosidase.; type: functional
# Sequence of Beta-galactosidase (Q8VNN2 whole entry): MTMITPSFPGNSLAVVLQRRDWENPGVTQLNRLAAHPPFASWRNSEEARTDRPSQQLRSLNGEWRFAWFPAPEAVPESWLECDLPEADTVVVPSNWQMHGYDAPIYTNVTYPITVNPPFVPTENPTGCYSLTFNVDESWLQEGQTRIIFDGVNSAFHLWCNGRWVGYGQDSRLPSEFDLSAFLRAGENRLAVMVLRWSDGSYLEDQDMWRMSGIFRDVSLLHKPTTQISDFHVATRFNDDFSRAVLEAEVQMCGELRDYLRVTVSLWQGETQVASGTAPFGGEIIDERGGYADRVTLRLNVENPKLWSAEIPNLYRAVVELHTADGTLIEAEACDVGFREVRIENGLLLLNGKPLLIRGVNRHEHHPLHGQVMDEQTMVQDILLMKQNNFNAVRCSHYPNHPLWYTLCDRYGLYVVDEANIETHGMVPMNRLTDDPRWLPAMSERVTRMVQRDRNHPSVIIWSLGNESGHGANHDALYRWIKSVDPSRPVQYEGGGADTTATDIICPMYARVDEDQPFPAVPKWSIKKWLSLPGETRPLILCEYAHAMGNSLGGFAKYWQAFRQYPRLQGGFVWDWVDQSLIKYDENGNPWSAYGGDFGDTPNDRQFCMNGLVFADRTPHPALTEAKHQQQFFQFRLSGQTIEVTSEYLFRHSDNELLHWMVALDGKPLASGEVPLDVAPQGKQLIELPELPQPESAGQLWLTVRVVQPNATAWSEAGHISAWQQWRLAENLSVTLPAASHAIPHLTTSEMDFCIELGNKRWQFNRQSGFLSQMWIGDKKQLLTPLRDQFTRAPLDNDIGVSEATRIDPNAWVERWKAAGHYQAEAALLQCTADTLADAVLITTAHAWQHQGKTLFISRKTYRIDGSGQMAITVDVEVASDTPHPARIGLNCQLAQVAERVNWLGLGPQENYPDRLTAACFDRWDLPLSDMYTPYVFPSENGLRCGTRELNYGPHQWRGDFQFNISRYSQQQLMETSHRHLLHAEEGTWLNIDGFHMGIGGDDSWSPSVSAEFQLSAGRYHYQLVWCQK
structure (smiles),measurement,setting,value
Cc1cc(C)c2nc(-c3ccncc3)cc(C(=O)N3CCN(Cc4ccccc4Cl)CC3)c2c1,EC50,[1],9.94 µM (active)
same,EC50,[2],10.3 µM (active)
same,EC50,[3],> 60 µM (not active)
same,EC50,[4],2.35 µM (active)
same,EC50,[5],3.71 µM (active)
same,EC50,[6],> 150 µM (not active)
same,CC50,[7],> 40 µM (active)
CCOc1nc(SCCOc2ccc(Cl)cc2Cl)nc(N(C)C)n1,IC50,[8],5.52 µM (active)
same,IC50,[9],5.54 µM (active)
CC1(OC(=O)C2CCCC2)C(=O)C=C2C=C(c3ccsc3)N(Cc3ccco3)C=C2C1=O (centres undefined),EC50,[10],> 100 µM (active)
CC(=O)c1ccc(Sc2ccccc2)c([N+](=O)[O-])c1,EC50,[11],11.4 µM (active)
same,EC50,[12],2.88 µM (active)
O=C(c1cc(-c2cccc(O)c2)on1)N1CCN(C(c2ccccc2)c2ccccc2)CC1,EC50,[13],> 35.4 µM (not active)
same,AC50,[14],1.58 µM (active)
same,AC50,[15],9.7 µM (active)
same,IC50,[16],> 35.4 µM (not active)
same,EC50,[17],> 35.4 µM (not active)
same,CC50,[18],15.4 µM (active)
same,IC50,[19],151 µM (inactive)
